# Where a SMILES comes first, the peptide text is derived from it. [ ]: non-standard residue; d: D form.
# System: aortic rings pre-contracted with phenylephrine
# Design: species or system Wistar Kyoto rats
# Method: Ten-week-old male Wistar Kyoto rats were anesthetized with ketamine (35 mg/kg) and xylazine (7 mg/kg) administered intraperitoneally. The aortas were removed, dissected from the extravascular connective tissue, and cut into 3 mm long rings in fresh Krebs buffer pH 7.4 (KRB, 120 mM NaCl, 25 mM NaHCO3, 5 mM glucose, 4.8 mM KCI, 2.5 mM CaCl2, 1.2 mM MgSO4, […], and 1.2 mM KH2PO4) freshly bubbled with 5% CO2 in air. They were then mounted on a wire myograph (DMT 620M) and placed in an organ bath with KRB, pH 7.4 at 37°C with constant bubbling and equilibrated for 30 min at a tension of 1.5 g. The vasodilator response of ^DH^DF^DP^DH^DI^DY^DV^DR^DD^LD^LR^LV^LY^LI^LH^LP (SEQ ID NO: 1), which corresponds to a fusion of the angiotensin-(1-9) retro-enantio peptide (D-amino acids, N-terminal to C-terminal direction: ^DH^DF^DP^DH^DI^DY^DV^DR^DD (SEQ ID NO: 2)) and the angiotensin-(1-7) peptide (L-amino acids, N-terminal to C-terminal direction: ^LD^LR^LV^LY^LI^LH^LP (SEQ ID NO: 3) were evaluated in dose-response curves [10^-18 to 10^-4 M] to these molecules in baths with aortic rings pre-contracted with phenylephrine 10^-7 M. Carbacol (10^-6-10^-4 M) was used as a relaxation control. The peptides were added in cumulative concentrations to the baths when the vasoconstrictor response to phenylephrine reached its maximum level. […]
structure (smiles),measurement,value
"CC[C@@H](C)[C@@H](NC(=O)[C@@H](Cc1c[nH]cn1)NC(=O)[C@H]1CCCN1C(=O)[C@@H](Cc1ccccc1)NC(=O)[C@H](N)Cc1c[nH]cn1)C(=O)N[C@H](Cc1ccc(O)cc1)C(=O)N[C@@H](C(=O)N[C@H](CCCNC(=N)N)C(=O)N[C@H](CC(=O)O)C(=O)O)C(C)C [RI-Ang-(1-9), ^DH^DF^DP^DH^DI^DY^DV^DR^DD] (H-[dH][dF][dP][dH][dI][dY][dV][dR][dD]-OH)",EC50,0.0767 nM
"CC[C@@H](C)[C@@H](NC(=O)[C@@H](Cc1c[nH]cn1)NC(=O)[C@H]1CCCN1C(=O)[C@@H](Cc1ccccc1)NC(=O)[C@H](N)Cc1c[nH]cn1)C(=O)N[C@H](Cc1ccc(O)cc1)C(=O)N[C@@H](C(=O)N[C@H](CCCNC(=N)N)C(=O)N[C@H](CC(=O)O)C(=O)N[C@@H](CC(=O)O)C(=O)N[C@@H](CCCNC(=N)N)C(=O)N[C@H](C(=O)N[C@@H](Cc1ccc(O)cc1)C(=O)N[C@H](C(=O)N[C@@H](Cc1c[nH]cn1)C(=O)N1CCC[C@H]1C(=O)O)[C@@H](C)CC)C(C)C)C(C)C [HP16, ^DH^DF^DP^DH^DI^DY^DV^DR^DD^LD^LR^LV^LY^LI^LH^LP]",EC50,0.00509 nM
